Test results from patent publication US20060069132A1, “Azolecarboxamide herbicides” (priority 2004, published 2006).

Assays:
barnyardgrass = experiment: Test B pre-/postemergence herbicide test; type: in vivo, Echinochloa crus-galli; conditions: for Plant response rating, Barnyardgrass: preemergence; for Barnyardgrass plant response rating: postemergence, visual rating, scale 0 (no effect) to 100 (complete control)
Summary of the method: (§1)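 Pre: seeds sown, then sprayed. Post: 1–4-leaf plants (2–18 cm) sprayed at the same time. Paddy: flooded, treated at 2-leaf stage. Formulation: non-phytotoxic solvent with surfactant. Greenhouse 13–15 days; visual 0–100 score relative to controls.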

Surinam grass = experiment: Test B pre-/postemergence herbicide test; type: in vivo, Urochloa decumbens; conditions: for Plant response rating, Surinam Grass: preemergence; for Surinam Grass plant response rating: postemergence, visual rating, scale 0 (no effect) to 100 (complete control)
Summary of the method: (§2)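 Seeds were planted and treated preemergence with compounds formulated in a non-phytotoxic solvent mixture containing surfactant, while plants at the 1- to 4-leaf stage (2 to 18 cm) received postemergence sprays. Flooded paddy plants were grown to the 2-leaf stage. After 13 to 15 days in a greenhouse, injury was visually rated 0–100 against untreated controls.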

cocklebur = experiment: Test B pre-/postemergence herbicide test; type: in vivo, Xanthium strumarium; conditions: for Plant response rating, Cocklebur: preemergence; for Cocklebur plant response rating: postemergence, visual rating, scale 0 (no effect) to 100 (complete control)
Summary of the method: as §1

corn = experiment: Test B pre-/postemergence herbicide test; type: in vivo, Zea mays; conditions: for Plant response rating, Corn: preemergence; for Corn plant response rating: postemergence, visual rating, scale 0 (no effect) to 100 (complete control)
Summary of the method: as §2

large crabgrass = experiment: Test B pre-/postemergence herbicide test; type: in vivo, Digitaria sanguinalis; conditions: for Plant response rating, Crabgrass, Large: preemergence; for Crabgrass, Large plant response rating: postemergence, visual rating, scale 0 (no effect) to 100 (complete control)
Summary of the method: as §2

giant foxtail = experiment: Test B pre-/postemergence herbicide test; type: in vivo, Setaria faberi; conditions: for Plant response rating, Foxtail, Giant: preemergence; for Foxtail, Giant plant response rating: postemergence, visual rating, scale 0 (no effect) to 100 (complete control)
Summary of the method: as §2

lambsquarters = experiment: Test B pre-/postemergence herbicide test; type: in vivo, Chenopodium album; conditions: for Plant response rating, Lambsquarters: preemergence; for Lambsquarters plant response rating: postemergence, visual rating, scale 0 (no effect) to 100 (complete control)
Summary of the method: as §2

morningglory = experiment: Test B pre-/postemergence herbicide test; type: in vivo, Ipomoea coccinea; conditions: for Plant response rating, Morningglory: preemergence; for Morningglory plant response rating: postemergence, visual rating, scale 0 (no effect) to 100 (complete control)
Summary of the method: as §1

pigweed = experiment: Test B pre-/postemergence herbicide test; type: in vivo, Amaranthus retroflexus; conditions: for Plant response rating, Pigweed: preemergence; for Pigweed plant response rating: postemergence, visual rating, scale 0 (no effect) to 100 (complete control)
Summary of the method: as §2

velvetleaf = experiment: Test B pre-/postemergence herbicide test; type: in vivo, Abutilon theophrasti; conditions: for Plant response rating, Velvetleaf: preemergence; for Velvetleaf plant response rating: postemergence, visual rating, scale 0 (no effect) to 100 (complete control)
Summary of the method: as §2

blackgrass = experiment: Test B postemergence herbicide test; type: in vivo, Alopecurus myosuroides; conditions: postemergence, visual rating, scale 0 (no effect) to 100 (complete control)
Summary of the method: (§3)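 Read-out: visual comparison with controls, scored 0 to 100, where 100 means complete control and 0 no effect. Formulated chemicals were applied postemergence to plants 2–18 cm tall (1- to 4-leaf), or to flooded-paddy plants at the 2-leaf stage, then held 13 to 15 days under glass.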

wild oat = experiment: Test B postemergence herbicide test; type: in vivo, Avena fatua; conditions: postemergence, visual rating, scale 0 (no effect) to 100 (complete control)
Summary of the method: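 Scale 0–100: zero equals no visible effect, 100 complete control, judged by eye relative to controls. Timing: 13 to 15 days in greenhouse post-treatment. Growth stage at spraying: two leaves (paddy) or one to four leaves, 2–18 cm (postemergence).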

rice = experiment: Test B flooded paddy test; type: in vivo, Oryza sativa; conditions: 1000 g ai/ha, visual rating, scale 0 to 100 (0 no effect, 100 complete control), 13 to 15 days
Summary of the method: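 Visual ratings, 0 (no effect) to 100 (complete control), made versus controls after 13–15 d greenhouse. Paddy plants treated at 2-leaf stage; postemergence plants at 1- to 4-leaf stage, 2–18 cm tall.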

[1] = tested on: small flower umbrella sedge; experiment: Test B flooded paddy test; type: in vivo, Cyperus difformis; conditions: 1000 g ai/ha, visual rating, scale 0 to 100 (0 no effect, 100 complete control), 13 to 15 days
Summary of the method: as §3

ducksalad = experiment: Test B flooded paddy test; type: in vivo, Heteranthera limosa; conditions: 1000 g ai/ha, visual rating, scale 0 to 100 (0 no effect, 100 complete control), 13 to 15 days
Summary of the method: as §3

[2] = 500 g ai/ha, visual rating 0-100, 0 no effect, 100 complete control
[3] = 125 g ai/ha, 0 to 100 scale, 0 is no effect, 100 is complete control

CCCCOc1cccc(NC(=O)c2cc(C(C)(C)C)nn2CC)c1 [Compound 137]
Plant response rating, Barnyardgrass (barnyardgrass; [2]): 70
Barnyardgrass plant response rating (barnyardgrass; 125 g ai/ha): 30
Barnyardgrass plant response rating (barnyardgrass; 500 g ai/ha): 40
Plant response rating, Barnyardgrass (barnyardgrass; [3]): 10
Plant response rating, Surinam Grass (Surinam grass; [2]): 80
Surinam Grass plant response rating (Surinam grass; 125 g ai/ha): 20
Surinam Grass plant response rating (Surinam grass; 500 g ai/ha): 70
Plant response rating, Surinam Grass (Surinam grass; [3]): 20
Plant response rating, Cocklebur (cocklebur; [2]): 0
Cocklebur plant response rating (cocklebur; 125 g ai/ha): 50
Cocklebur plant response rating (cocklebur; 500 g ai/ha): 100
Plant response rating, Cocklebur (cocklebur; [3]): 0
Plant response rating, Corn (corn; [2]): 10
Corn plant response rating (corn; 125 g ai/ha): 10
Corn plant response rating (corn; 500 g ai/ha): 20
Plant response rating, Corn (corn; [3]): 10
Plant response rating, Crabgrass, Large (large crabgrass; [2]): 100
Crabgrass, Large plant response rating (large crabgrass; 125 g ai/ha): 10
Crabgrass, Large plant response rating (large crabgrass; 500 g ai/ha): 30
Plant response rating, Crabgrass, Large (large crabgrass; [3]): 80
Plant response rating, Foxtail, Giant (giant foxtail; [2]): 80
Foxtail, Giant plant response rating (giant foxtail; 125 g ai/ha): 10
Foxtail, Giant plant response rating (giant foxtail; 500 g ai/ha): 20
Plant response rating, Foxtail, Giant (giant foxtail; [3]): 40
Plant response rating, Lambsquarters (lambsquarters; [2]): 80
Lambsquarters plant response rating (lambsquarters; 125 g ai/ha): 80
Lambsquarters plant response rating (lambsquarters; 500 g ai/ha): 80
Plant response rating, Lambsquarters (lambsquarters; [3]): 10
Plant response rating, Morningglory (morningglory; [2]): 20
Morningglory plant response rating (morningglory; 125 g ai/ha): 0
Morningglory plant response rating (morningglory; 500 g ai/ha): 60
Plant response rating, Morningglory (morningglory; [3]): 0
Plant response rating, Pigweed (pigweed; [2]): 100
Pigweed plant response rating (pigweed; 125 g ai/ha): 90
Pigweed plant response rating (pigweed; 500 g ai/ha): 100
Plant response rating, Pigweed (pigweed; [3]): 80
Plant response rating, Velvetleaf (velvetleaf; [2]): 60
Velvetleaf plant response rating (velvetleaf; 125 g ai/ha): 40
Velvetleaf plant response rating (velvetleaf; 500 g ai/ha): 60
Plant response rating, Velvetleaf (velvetleaf; [3]): 10
Blackgrass plant response rating (blackgrass; 125 g ai/ha): 10
Blackgrass plant response rating (blackgrass; 500 g ai/ha): 20
Oat, Wild plant response rating (wild oat; 125 g ai/ha): 30
Oat, Wild plant response rating (wild oat; 500 g ai/ha): 70
Rice plant response rating (rice): 20
Sedge, Umbrella plant response rating [1]: 90
Ducksalad plant response rating (ducksalad): 30

CCn1nc(C(C)(C)C)cc1C(=O)Nc1cccc(OCCCF)c1 [Compound 138]
Plant response rating, Barnyardgrass (barnyardgrass; [2]): 70
Barnyardgrass plant response rating (barnyardgrass; 125 g ai/ha): 10
Barnyardgrass plant response rating (barnyardgrass; 500 g ai/ha): 20
Plant response rating, Barnyardgrass (barnyardgrass; [3]): 10
Plant response rating, Surinam Grass (Surinam grass; [2]): 30
Surinam Grass plant response rating (Surinam grass; 125 g ai/ha): 20
Surinam Grass plant response rating (Surinam grass; 500 g ai/ha): 30
Plant response rating, Surinam Grass (Surinam grass; [3]): 0
Plant response rating, Cocklebur (cocklebur; [2]): 10
Cocklebur plant response rating (cocklebur; 125 g ai/ha): 40
Cocklebur plant response rating (cocklebur; 500 g ai/ha): 90
Plant response rating, Cocklebur (cocklebur; [3]): 0
Plant response rating, Corn (corn; [2]): 10
Corn plant response rating (corn; 125 g ai/ha): 20
Corn plant response rating (corn; 500 g ai/ha): 30
Plant response rating, Corn (corn; [3]): 0
Plant response rating, Crabgrass, Large (large crabgrass; [2]): 100
Crabgrass, Large plant response rating (large crabgrass; 125 g ai/ha): 20
Crabgrass, Large plant response rating (large crabgrass; 500 g ai/ha): 20
Plant response rating, Crabgrass, Large (large crabgrass; [3]): 40
Plant response rating, Foxtail, Giant (giant foxtail; [2]): 70
Foxtail, Giant plant response rating (giant foxtail; 125 g ai/ha): 20
Foxtail, Giant plant response rating (giant foxtail; 500 g ai/ha): 30
Plant response rating, Foxtail, Giant (giant foxtail; [3]): 30
Plant response rating, Lambsquarters (lambsquarters; [2]): 100
Lambsquarters plant response rating (lambsquarters; 125 g ai/ha): 80
Lambsquarters plant response rating (lambsquarters; 500 g ai/ha): 90
Plant response rating, Lambsquarters (lambsquarters; [3]): 0
Plant response rating, Morningglory (morningglory; [2]): 20
Morningglory plant response rating (morningglory; 125 g ai/ha): 20
Morningglory plant response rating (morningglory; 500 g ai/ha): 60
Plant response rating, Morningglory (morningglory; [3]): 0
Plant response rating, Pigweed (pigweed; [2]): 100
Pigweed plant response rating (pigweed; 125 g ai/ha): 60
Pigweed plant response rating (pigweed; 500 g ai/ha): 90
Plant response rating, Pigweed (pigweed; [3]): 60
Plant response rating, Velvetleaf (velvetleaf; [2]): 40
Velvetleaf plant response rating (velvetleaf; 125 g ai/ha): 20
Velvetleaf plant response rating (velvetleaf; 500 g ai/ha): 50
Plant response rating, Velvetleaf (velvetleaf; [3]): 0
Blackgrass plant response rating (blackgrass; 125 g ai/ha): 0
Blackgrass plant response rating (blackgrass; 500 g ai/ha): 20
Oat, Wild plant response rating (wild oat; 125 g ai/ha): 20
Oat, Wild plant response rating (wild oat; 500 g ai/ha): 30
Rice plant response rating (rice): 50
Sedge, Umbrella plant response rating [1]: 80
Ducksalad plant response rating (ducksalad): 80
